Values of other authors as cited in publication PMC5225183, “Fingerprinting of neurotoxic compounds using a mouse embryonic stem cell dual luminescence reporter assay” (Archives of Toxicology, 2016).

Legend:
[1] = system: neural crest cell migration; set-up: method as in Zimmer et al. [2012]; details: ref Zimmer et al. [2012]; cited from earlier work
[2] = system: neuroepithelial precursor cell migration; set-up: method as in Zimmer et al. [2012]; details: ref Zimmer et al. [2012]; cited from earlier work
rats = details: Sprague Dawley rats, GD 6 through LD 20; ref US FDA [2012]; cited from earlier work
[3] = set-up: method as in Supko et al. [1995]; details: mouse, i.v.; ref Supko et al. [1995]; cited from earlier work

Structure (SMILES): CCCC(CCC)C(=O)O [Valproic acid]
- concentration inhibiting neural crest cell migration [1]: 10 to 100 µM
- concentration not affecting neuroepithelial precursor cell migration [2]: > 1 mM

Structure (SMILES): C/C(O)=C(\C#N)C(=O)Nc1ccc(C(F)(F)F)cc1 [Teriflunomide]
- oral dose leading to teratogenicity (rats): 0.3 mg/kg/day

Structure (SMILES): COC1=C2C[C@@H](C)C[C@H](OC)[C@H](O)[C@@H](C)/C=C(\C)[C@H](OC(N)=O)[C@@H](OC)/C=C\C=C(/C)C(=O)NC(=CC1=O)C2=O [Geldanamycin]
- initial volume of distribution [3]: 0.16 L/kg
